Laboratory results reported in patent publication US20070004686A1, “Attractant for apple fruit moth and other insect pests of apple” (priority 2002, published 2007).
Entries after “also recorded” stand apart in the source; their conditions may differ.

Legend:
Type in all cases: in vivo
[1] = system: apple fruit moth Argyresthia conjugella; assay: Field trap attraction of apple fruit moth; conditions: for relative attractiveness for apple fruit moth among compounds and blends tested: field traps, 10 mg on red rubber septa, males and females; for attraction of apple fruit moth females and males to field traps compared with blank: single compounds, 10 mg on red rubber septa in Tetra traps with sticky bottoms
Protocol: (§1) The compounds eliciting a strong response from antennae of female apple fruit moth and codling moth were then all tested in field traps for attraction of insects. Compounds were applied at a standard dose of 10 mg on red rubber septa, the septa were mounted in Tetra traps with sticky bottoms (Arm et al. 1979).
Furthermore, 2-phenyl ethanol was tested in a series of 2-component blends, including all compounds which had shown some attractiveness by themselves.
(§2) Its attractivity can be augmented by blending it with anethole. […] Both sexes of Argyresthia conjugella were attracted. Attraction of females is of importance for monitoring the migration of mated females into orchards. Attraction of females enables population control by mass-trapping, by an attracticide formulation, or by disruption of mating and oviposition behaviour.

other insects = assay: Field trapping experiment, species specificity (other insects); conditions: conditions tested (region, time of season)
Protocol: as §1, §2
Attraction of Argyresthia conjugella to 2-phenyl ethanol has not been reported, and the blend of 2-phenyl ethanol and anethole has not been described to be attractive for any other species.

[2] = system: codling moth Cydia pomonella; assay: Field trap attraction of codling moth; conditions: traps baited with 10 mg
Protocol: as §1
In a wind tunnel experiment, a blend of farnesol and (E)-beta-farnesene released at 10 ng/min attracted within 2 min 35% of the males tested to the source (N=60).

Which “relative attractiveness for apple fruit moth among compounds and blends tested” value [1] does the source give for `OCCc1ccccc1` [2-phenyl ethanol, 2-Phenyl ethanol] here?
Its value is “single most attractive compound”.

What about the “attraction of apple fruit moth females and males to field traps compared with blank” value (“attraction … compared with blank” for short) [1] of the same compound?
The value was “numbers significantly different from blank; also recorded: attractant for both males and females”.

What about the “attraction of insects other than Argyresthia conjugella (species specificity)” value (other insects) of the same compound?
Its value is “no other insects were attracted in significant numbers”.

`CC/C=C\CCOC(=O)C(C)CC` (stereo not drawn) [(Z)3-hexenyl 2-methylbutanoate] was tested. Which “attraction of codling moth males to baited traps” value (shortened to “attraction of codling moth males”) [2] did it give?
Its value is “attracted in significant numbers”.

`CC=Cc1ccc(OC)cc1` [anethole, Anethole] was tested. Which “relative attractiveness for apple fruit moth among compounds and blends tested” value ([1]; listed as Anethole) did it give?
The value was “only a weak attractant”.

And the “attraction … compared with blank” value [1]?
Its value is “numbers significantly different from blank”.

And the “attraction of codling moth males” value [2]?
Its value is “attracted in significant numbers”.

How did the “attraction of codling moth males” value [2] turn out when `CC/C=C\CC1=C(C)CCC1=O` [cis-jasmone] was run?
Its value is “attracted in significant numbers”.

With `CC(C)=CCCC(C)=CCCC(C)=CCO` [farnesol, Farnesol] as the compound, how does the “attraction of codling moth males” value [2] read?
Its value is “attracted in significant numbers”.

With `C=CC(C)(O)CCC=C(C)C` (stereo not drawn) [linalool, Linalool] as the compound, how does the “attraction … compared with blank” value [1] read?
The value was “numbers significantly different from blank”.

Which results are given for `COc1ccc(C=O)cc1` [p-anisaldehyde, P-Anisaldehyde]?
attraction of apple fruit moth females and males to field traps compared with blank [1]: numbers significantly different from blank; attraction of codling moth males to baited traps [2]: attracted in significant numbers
